Data on one molecule can be found in patent US20140161720A1, “TREATMENT OF ANGIOGENIC- OR VASCULAR-ASSOCIATED DISEASES” (THE GENERAL HOSPITAL CORPORATION, priority 2011, published 2014).

As a reminder, the IC50 is the concentration at which inhibition is half-maximal.

Assay [1] has as its system orthotopic E0771 mammary tumors. Description: Tumor growth delay study, E0771. The note with it: start ~100 mm^3, 37.5 mg/kg daily i.p. The format is in vivo, female SCID mice. The method, then:
To assess the anti-tumor effects of DAL, female SCID mice bearing orthotopic 4T1 or E0771 mammary tumors were treated with daily i.p. injections of 37.5 mg/kg DAL or saline. In order to calculate tumor volumes, the major and minor axis diameters were measured with calipers and the tumor volume was calculated by assuming a spherical shape based on the average of these two dimensions. The tumors were implanted in the mammary fat pad and allowed to grow to a starting size (small ˜100 mm^3 tumors for E0771, large ˜200 mm^3 tumors for 4T1) over ˜2 weeks. To ensure that tumors in the two groups were of similar growth rates, the treatment with saline or DAL was begun in pairs of tumors with similar sizes and growth times. Tumor volumes were measured every other day until the tumors reached an average of ˜10 mm in diameter. Tumor growth was quantified with the doubling rate, and calculated by fitting an exponential growth curve to the data for tumor size versus time.
As shown in Example 3, DAL has an antivascular effect in orthotopic mammary tumors in mice. Thus, the antitumor effect of DAL was next assessed. […] The effect of DAL on the growth of orthotopic 4T1 and E0771 mammary tumors with daily treatment of DAL or saline was evaluated (FIG. 4A). 37.5 mg/kg of DAL was used for these experiments based on the pharmacokinetics results as well as in vitro and in vivo data. […]

The next assay has as its target T1, IDO (Homo sapiens, UniProt P14902).
T1 construct: expressed in transfected cells; host or cells: HEK 293
Description: IDO activity in HEK 293 cells expressing IDO (kynurenine, spectrophotometric). The format is cell-based. The note with it: kynurenine readout, 10-dose threefold dilutions. The method, then: The IDO activity was analyzed by the presence of kynurenine with a spectrophotometric assay. DAL was tested in a 10-dose IC50 mode with threefold serial dilutions (0.1 μM, 0.3 μM, 0.9 μM, 2.7 μM, 8.1 μM, 24.3 μM, 72.9 μM, 218.7 μM, 656 μM and 2000 μM). […] DAL binds concurrently with the tryptophan substrate (Trp) and prevents the closure of the binding site lid that is critical for the reaction catalysis.
To determine whether DAL is an immuno-modulator, the effect of DAL on IDO activity was measured. To monitor IDO enzymatic activity, HEK 293 cells were engineered to express IDO and treated with DAL in a 10-dose IC50 mode with threefold serial dilutions. The IDO activity was analyzed by the presence of kynurenine (the first stable catabolite downstream of IDO) with a spectrophotometric assay (Katz et al., 2008; Littlejohn et al., 2000). […] Because DAL inhibits recombinant purified IDO in the enzymatic assay, it is likely that DAL physically interacts with IDO1, forming a complex that represses IDO1 activity. To elucidate a possible structural basis for this inhibition, comparative modeling and molecular docking were used (FIGS. 9A-9D). […] It was therefore assessed that if lid closure may be a critical step for the efficient reaction catalysis by IDO. […]

T1 sequence (P14902 whole entry): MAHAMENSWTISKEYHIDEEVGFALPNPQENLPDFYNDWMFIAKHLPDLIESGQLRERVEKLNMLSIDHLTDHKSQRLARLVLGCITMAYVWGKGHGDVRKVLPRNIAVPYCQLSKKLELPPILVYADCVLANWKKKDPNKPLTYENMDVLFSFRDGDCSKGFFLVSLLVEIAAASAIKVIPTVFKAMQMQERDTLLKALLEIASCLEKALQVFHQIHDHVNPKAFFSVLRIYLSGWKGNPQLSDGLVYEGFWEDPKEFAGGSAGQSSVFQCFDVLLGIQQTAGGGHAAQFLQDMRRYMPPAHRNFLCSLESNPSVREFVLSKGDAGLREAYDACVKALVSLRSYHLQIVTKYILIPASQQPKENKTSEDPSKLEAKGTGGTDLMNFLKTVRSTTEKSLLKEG

`CC1(C)C=CC2=C(O1)C(=O)c1ccccc1C2=O` [DAL, dehydro-alpha-lapachone]: in assay [1], the “tumor volume doubling time” value was 4.77 ± 0.58 days. The IC50 on IDO was around 300 nM.
